# Measurements from patent US6319910A, “Method for inhibiting cyclooxygenase-2 and tumor necrosis factor alpha” (Hospital for Joint Diseases, priority 1998, dated 2001).
# Entries after “also recorded” stand apart in the source; their conditions may differ.
# Assays:
# RAW 264.7 cells [1] = test: PGE2 production/accumulation in LPS-stimulated RAW 264.7 cells; type: cell-based, murine; conditions: for inhibition at 10 µg/mL: Mus musculus, RAW264.7, 16 h, read-out: PGE2 % Inhibition or (Increase)
# RAW 264.7 cells [2] = test: Nitrite (NO) production/accumulation in LPS-stimulated RAW 264.7 cells; type: cell-based, murine; conditions: LPS 100 ng/ml; for Nitrite / inhibition at 10 µg/mL: compound 10 μg/ml; for Effect on NO production: words; for inhibition at 10 µg/mL: Mus musculus, RAW264.7, 16 h
# bovine chondrocytes [3] = test: PGE2 production in LPS stimulated bovine chondrocytes (radioimmunoassay); type: cell-based; conditions: FIGS. 3 and 9, words
# Experimental: After 48 hours the medium was changed and the cells were incubated with CMT-3 or N-monomethyl arginine (NMMA) for 2 hours before stimulating them with 100 μg/ml LPS. DMSO was used as a carrier for the modulators and the DMSO concentration was maintained (<0.01% v/v) in the cultures. Equivalent amounts of DMSO was also added to the control cultures. The levels of COX-2 dependent PGE2 release was assayed after 72 hrs by radioimmunoassay. […] The data represents mean±SD which was evaluated by T test where n=3.
# bovine chondrocytes [4] = test: Nitrite (NO) production in LPS stimulated bovine chondrocytes; type: cell-based; conditions: FIGS. 3 and 9; LPS 100 μg/ml; words
# COX-2 = test: Expression/modification (size) of COX-2 in LPS-stimulated murine macrophages, Western blot; type: cell-based; conditions: LPS 100 ng/ml
# Experimental: RAW 263.7 cells were grown as previously described (Amin et al, 1995b). Murine macrophages stimulated with 100 ng/ml LPS were incubated with CMT-3 or tunicamycin (a glycosylation inhibitor). […] Nitrite and PGE2 were estimated as previously described (Amin et al, 1995b). It is quite possible that CMT-3 may inhibit COX-2 and PGE2 production by post translational modification of COX-2 which may be similar to tunicamycin inhibition. The data represents the mean±SD evaluated by T test (n=3).
# Murine macrophage cells were cultivated as previously described (Amin et al, 1995b). […] cells were stimulated with 100 ng/ml of LPS in the presence of CMT-3, CMT-5 and glycosylation inhibitor, tunicamycin. The cells were grown for 16 hr and harvested. The cell free extracts were prepared as previously described (Amin et al, 1995b). In FIG. 4A, 50 μg of protein was loaded in each well and run on SDS-PAGE gels and blotted onto Western blots using a specific anti COX-2 antibody as previously described (Amin et al, 1997a). The positive control is a standard COX-2. […] The size is approximately 2000 D smaller (CMT-3 form) than the native COX-2 shown as a standard. […] These experiments indicate that CMT-3 induces modification of the COX-2 protein. The SDS PAGE analysis and Western blotting of COX-2 was carried out as described above.
# OA-affected cartilage [5] = test: Spontaneous PGE2 release by OA-affected cartilage (ex vivo organ culture); type: cell-based, human
# OA-affected cartilage [6] = test: Spontaneous nitrite/nitric oxide release by OA-affected cartilage (ex vivo organ culture); type: cell-based, human
# TNFα = TNFα release in the medium by HEK 293 cells permanently transfected with human proTNFα (ELISA); type: cell-based; conditions: words
# iNOS mRNA = conditions: Amin et al, 1997b; words; cited from earlier work
# [7] = words; cited from earlier work
# NOS = conditions: previously shown; words; cited from earlier work
# [8] = Experiment II, LPS 100 ng/ml, compound 10 μg/ml, 16 hours
# [9] = human OA-affected cartilage, words
smiles,measurement,setting,value
"NC(=O)C1=C(O)C2(O)C(=O)C3=C(O)c4c(O)cccc4CC3CC2CC1=O (stereo not shown) [CMT-3, 6-demethyl-6-deoxy-4-dedimethylaminotetracycline]",PGE2 accumulation,"RAW 264.7 cells [1]; 16 h, 10 ug/mL",8.7 ± 2.4 ng/mL
same,PGE2 accumulation,RAW 264.7 cells [1]; [8],6.5 ± 0.5 ng/mL
same,Effect on L-NMMA induced PGE2 production,"RAW 264.7 cells [1]; FIG. 1, CMT-3+L-NMMA, LPS 100 ng/ml, words",blocks L-NMMA induced PGE2 production
same,Effect on PGE2 production,"RAW 264.7 cells [1]; FIG. 1, LPS 100 ng/ml, 16 hours, words",blocks both NO and PGE2 production
same,Effect on PGE2 production,"RAW 264.7 cells [1]; FIG. 2, LPS 100 ng/ml, words",inhibit
same,inhibition at 10 µg/mL,"RAW 264.7 cells [1]; Experiment I, LPS 100 ng/ml, compound 10 μg/ml, 16 hours",66%
same,inhibition at 10 µg/mL,RAW 264.7 cells [1]; [8],67%
same,Effect on COX-2 activity,"RAW 264.7 cells [1]; independent of intracellular NO, words",inhibits COX-2 activity independent of intracellular NO concentrations
same,Nitrite,"RAW 264.7 cells [2]; Experiment I, 16 hours",24.7 µM
same,Nitrite,"RAW 264.7 cells [2]; Experiment II, 16 hours",11.7 µM
same,Effect on NO production,"RAW 264.7 cells [2]; FIG. 1, 16 hours",blocks both NO and PGE2 production
same,Effect on NO production,RAW 264.7 cells [2]; FIG. 2,inhibit
same,inhibition at 10 µg/mL,"RAW 264.7 cells [2]; Experiment I, 16 hours",48%
same,inhibition at 10 µg/mL,"RAW 264.7 cells [2]; Experiment II, 16 hours",46%
same,Effect on PGE2 production,"bovine chondrocytes [3]; LPS 100 μg/ml, 72 hrs",inhibit NO and PGE2 production
same,Effect on L-NMMA induced PGE2 up-regulation,bovine chondrocytes [3],inhibits the L-NMMA induced PGE2 up-regulation
same,Effect on NO production,bovine chondrocytes [4],inhibit NO and PGE2 production
same,Effect on COX-2 expression,"COX-2; FIG. 2, words",inhibit
same,Decrease in size of COX-2 versus native COX-2,"COX-2; FIG. 4A, 16 hr, Western blot",approximately 2000 D
same,Effect on size of COX-2,"COX-2; FIG. 4A, 16 hr, Western blot, words",decrease in the size of COX-2
same,inhibition at 5 µg/mL,"OA-affected cartilage [5]; Homo sapiens, Table 2, 5 μg/ml",60%
same,PGE2,"OA-affected cartilage [5]; Table 2, 5 μg/ml",88.0 ± 21.4 ng/mL
same,Effect on PGE2 production,OA-affected cartilage [5]; [9],significantly inhibit; also recorded: inhibits COX-2 expression and PGE2 production
same,Nitrite,"OA-affected cartilage [6]; Table 2, 5 μg/ml",75.0 ± 25.0 µM
same,Effect on NO production,OA-affected cartilage [6]; [9],significantly inhibit; also recorded: inhibiting NO production
same,Effect on TNFα release in the medium,TNFα; FIG. 7,inhibits TNFα release in the medium in a dose dependent manner
same,Effect on spontaneous TNFα release,"TNFα; FIG. 8, 16 hours",inhibit the spontaneous TNFα release
same,Inhibition of TNFα (summary statement),"TNFα; HEK 293 cells transfected with proTNFα cDNA, low levels",inhibiting TNFα
same,Effect on iNOS mRNA expression,iNOS mRNA,inhibiting iNOS mRNA expression
same,Antimicrobial activity,[7],no antimicrobial activity
same,NOS activity,NOS,inhibit NOS activity
